The structures appear in SMILES notation. *1 amine or outer side, *2 acyl side, *3 side chain or, on linkers, in order; H or OH if unused. Where a SMILES comes first, the peptide text is derived from it. Bridges are numbered along the chain shown (N, C = ends). Roman numbers before positions name the chains, in order. [ ]: non-standard residue; d: D form. Actinocin(1to9) = Cc1c2oc3c(C)ccc(C(=O)[*:2])c3nc-2c(C(=O)[*:1])c(N)c1=O; NMeV = CN[C@H](C(=O)O)C(C)C; Sar = CNCC(=O)O

The source of these data is ChEMBL document CHEMBL1909046, “DrugMatrix in vitro pharmacology data”.

In one test the target is Acetylcholinesterase (Homo sapiens, UniProt P22303). Description: DRUGMATRIX: Acetylcholinesterase enzyme inhibition (substrate: acetylthiocholine). It is filed as cell-based, HEK293. The note with it: Not Active = under 50% inhibition at 10 µM.
Test [1] deals with cGMP-specific 3',5'-cyclic phosphodiesterase (Homo sapiens, UniProt O76074). Description: DRUGMATRIX: Phosphodiesterase PDE5 enzyme inhibition (substrate: [3H]cGMP + cGMP). Format: tissue-based. The note with it: platelet; Not Active = under 50% inhibition at 10 µM.
Test [2] can be described thus: DRUGMATRIX: Glutamate, NMDA, Agonism radioligand binding (ligand: [3H] CGP-39653). It is filed as cell membranes, Rattus norvegicus, Wistar, Cerebral cortex, Membrane. The note with it: Not Active = under 50% inhibition at 10 µM.
A further test deals with T1, Adenosine receptor A1 (Homo sapiens, UniProt P30542).
T1 sequence (P30542 whole entry): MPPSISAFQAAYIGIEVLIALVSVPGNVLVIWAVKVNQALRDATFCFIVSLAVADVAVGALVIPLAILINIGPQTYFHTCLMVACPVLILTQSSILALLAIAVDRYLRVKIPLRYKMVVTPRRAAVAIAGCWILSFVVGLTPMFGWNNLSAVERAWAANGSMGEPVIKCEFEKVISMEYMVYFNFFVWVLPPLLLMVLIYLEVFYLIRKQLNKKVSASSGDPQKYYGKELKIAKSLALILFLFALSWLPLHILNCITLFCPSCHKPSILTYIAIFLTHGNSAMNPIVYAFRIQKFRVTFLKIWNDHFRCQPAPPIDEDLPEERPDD
Format: cell membranes, CHO, Membrane. As to conditions: cho.

The target of test [3] is T2, 3-hydroxy-3-methylglutaryl-coenzyme A reductase (Homo sapiens, UniProt P04035).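 Also: enzyme inhibition assay of HMG-CoA reductase using radiolabeled [14C]HMG-CoA as substrate; in other assays of this panel Not Active means under 50% inhibition at 10 µM.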
T2 sequence (P04035 whole entry): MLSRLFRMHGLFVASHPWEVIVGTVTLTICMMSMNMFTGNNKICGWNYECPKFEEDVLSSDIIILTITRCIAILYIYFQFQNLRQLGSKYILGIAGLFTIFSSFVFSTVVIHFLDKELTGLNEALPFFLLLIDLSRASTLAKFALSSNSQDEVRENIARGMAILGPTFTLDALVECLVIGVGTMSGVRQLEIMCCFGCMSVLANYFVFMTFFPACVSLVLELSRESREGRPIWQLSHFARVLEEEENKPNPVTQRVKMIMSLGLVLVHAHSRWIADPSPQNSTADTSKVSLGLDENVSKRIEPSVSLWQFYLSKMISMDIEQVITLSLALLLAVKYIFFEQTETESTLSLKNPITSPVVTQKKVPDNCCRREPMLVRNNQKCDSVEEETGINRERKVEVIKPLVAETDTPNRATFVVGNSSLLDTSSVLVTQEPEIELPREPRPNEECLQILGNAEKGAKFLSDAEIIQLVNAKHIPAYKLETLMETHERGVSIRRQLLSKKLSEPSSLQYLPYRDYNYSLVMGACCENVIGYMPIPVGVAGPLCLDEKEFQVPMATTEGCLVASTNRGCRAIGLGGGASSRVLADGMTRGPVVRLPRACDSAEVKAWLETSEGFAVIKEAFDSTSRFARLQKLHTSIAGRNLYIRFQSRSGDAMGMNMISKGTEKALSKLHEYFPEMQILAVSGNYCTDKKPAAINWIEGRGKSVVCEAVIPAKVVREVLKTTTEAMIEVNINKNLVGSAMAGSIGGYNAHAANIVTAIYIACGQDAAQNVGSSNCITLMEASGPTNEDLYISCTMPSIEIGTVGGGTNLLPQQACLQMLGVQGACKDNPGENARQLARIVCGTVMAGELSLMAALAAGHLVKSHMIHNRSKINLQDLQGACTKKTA
More on the design: species or system Escherichia coli.

Test [4] can be described thus: DRUGMATRIX: Glutamate, Kainate radioligand binding (ligand: [3H] Kainic acid). It is filed as cell membranes, Rattus norvegicus, Wistar, Brain, Membrane. As to conditions: Not Active = under 50% inhibition at 10 µM.
In the next test the target is T3, Endothelin-1 receptor (Homo sapiens, UniProt P25101). Also: in other assays of this panel Not Active means under 50% inhibition at 10 µM.
T3 sequence (P25101 whole entry): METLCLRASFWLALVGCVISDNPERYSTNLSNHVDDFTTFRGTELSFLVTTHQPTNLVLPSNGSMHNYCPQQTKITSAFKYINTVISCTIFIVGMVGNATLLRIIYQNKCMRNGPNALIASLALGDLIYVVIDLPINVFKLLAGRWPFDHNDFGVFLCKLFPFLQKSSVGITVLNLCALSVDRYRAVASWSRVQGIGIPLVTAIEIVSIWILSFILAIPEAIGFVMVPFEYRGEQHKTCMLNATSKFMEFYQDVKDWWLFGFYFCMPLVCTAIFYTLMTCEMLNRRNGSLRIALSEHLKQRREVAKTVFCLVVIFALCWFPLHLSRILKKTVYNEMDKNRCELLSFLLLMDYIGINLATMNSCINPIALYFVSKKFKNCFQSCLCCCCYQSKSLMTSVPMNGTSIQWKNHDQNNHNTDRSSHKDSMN
Format: cell membranes, CHO-K1, Membrane. As to conditions: cho-k1.

Test [5] can be described thus: DRUGMATRIX: Interleukin IL-1 radioligand binding (ligand: [125I] interleukin 1beta). It is filed as cell membranes, Membrane. As to conditions: nih3t3; Not Active = under 50% inhibition at 10 µM.
For test [6], the target named is T4, Cysteinyl leukotriene receptor 1 (Homo sapiens, UniProt Q9Y271). Also: in other assays of this panel Not Active means under 50% inhibition at 10 µM.
T4 sequence (Q9Y271 whole entry): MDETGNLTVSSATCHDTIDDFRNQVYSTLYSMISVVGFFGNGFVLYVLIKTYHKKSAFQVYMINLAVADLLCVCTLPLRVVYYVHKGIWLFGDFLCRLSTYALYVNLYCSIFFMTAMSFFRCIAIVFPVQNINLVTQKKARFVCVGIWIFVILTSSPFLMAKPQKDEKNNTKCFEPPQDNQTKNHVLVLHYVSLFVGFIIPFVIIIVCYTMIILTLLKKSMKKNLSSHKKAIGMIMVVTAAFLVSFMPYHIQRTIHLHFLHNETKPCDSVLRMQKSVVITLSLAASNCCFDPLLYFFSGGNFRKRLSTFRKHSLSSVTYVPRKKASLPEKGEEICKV
It is filed as cell membranes, CHO-K1, Membrane. As to conditions: cho-k1.

Chain of Acetylcholinesterase (P22303 whole entry): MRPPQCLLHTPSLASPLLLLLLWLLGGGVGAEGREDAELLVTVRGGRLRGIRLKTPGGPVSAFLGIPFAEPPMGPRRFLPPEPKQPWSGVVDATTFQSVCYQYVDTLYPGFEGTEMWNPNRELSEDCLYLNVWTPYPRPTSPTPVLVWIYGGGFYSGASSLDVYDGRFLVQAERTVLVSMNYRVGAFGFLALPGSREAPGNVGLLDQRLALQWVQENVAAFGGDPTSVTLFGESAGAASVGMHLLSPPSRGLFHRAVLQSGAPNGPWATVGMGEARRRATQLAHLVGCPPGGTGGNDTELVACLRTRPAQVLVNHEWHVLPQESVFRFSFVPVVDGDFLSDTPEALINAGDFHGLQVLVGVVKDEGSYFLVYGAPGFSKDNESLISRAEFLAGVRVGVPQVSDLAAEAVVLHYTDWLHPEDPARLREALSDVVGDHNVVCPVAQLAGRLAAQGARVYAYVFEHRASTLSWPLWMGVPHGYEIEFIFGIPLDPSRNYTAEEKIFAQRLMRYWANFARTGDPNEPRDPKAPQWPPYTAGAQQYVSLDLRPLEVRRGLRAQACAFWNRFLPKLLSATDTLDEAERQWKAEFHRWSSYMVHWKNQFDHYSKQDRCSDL

Broadly, the IC50 is the concentration needed to halve the response being measured. Regarding `CNNCc1ccc(C(=O)NC(C)C)cc1` [PROCARBAZINE], the IC50 entry (against Acetylcholinesterase (hek293); in [1]; in test [2]; on Adenosine receptor A1; in [3]; in test [4]) was “Not Active” throughout. The IC50 entry (at Endothelin-1 receptor; in test [5]; in test [6]) was “Not Active” throughout. Further, the Ki result in [2], in test [4] and in test [5] was “Not Active” each time.
Take `Cc1ccc(/N=C/N(C)/C=N/c2ccc(C)cc2C)c(C)c1` [AMITRAZ]: the half-maximal inhibitory concentration (IC50) entry (on Acetylcholinesterase (hek293); in [1]; in test [2]; on Adenosine receptor A1; in test [3]; in test [4]) was “Not Active” each time. The half-inhibitory concentration (IC50) result (against Endothelin-1 receptor; in test [5]; in [6]) was “Not Active” in each case. The Ki result in test [2], in [4] and in [5] was “Not Active” in each case.
`Cc1ccc2cc3c(ccc4ccccc43)c3c2c1CC3` [3-METHYLCHOLANTHRENE]: the IC50 at Acetylcholinesterase (read-out: IC50) is 22.7 µM; in [1], “Not Active”; in test [2] it was “Not Active”; on Adenosine receptor A1 it was “Not Active”; in test [3], “Not Active”; in test [4] it was “Not Active”. Further, the IC50 result (against Endothelin-1 receptor; in test [5]; in [6]) was “Not Active” in each case. Besides, the Ki result in [2], in test [4] and in test [5] was “Not Active” each time.
For `CNCCc1ccccn1` [BETAHISTINE], the IC50 result (on Acetylcholinesterase (hek293); in [1]; in test [2]; against Adenosine receptor A1; in test [3]; in test [4]) was “Not Active” each time. The IC50 result (at Endothelin-1 receptor; in [5]; in test [6]) was “Not Active” throughout. Further, the Ki entry in test [2], in test [4] and in test [5] was “Not Active” throughout.
Take `OC(Cn1cncn1)(Cn1cncn1)c1ccc(F)cc1F` [FLUCONAZOLE]: the IC50 entry (on Acetylcholinesterase (hek293); in test [1]; in test [2]; on Adenosine receptor A1; in [3]; in test [4]) was “Not Active” each time. Besides, the IC50 entry (against Endothelin-1 receptor; in [5]; in [6]) was “Not Active” throughout. In addition, the Ki entry in [2], in test [4] and in test [5] was “Not Active” in each case.
Regarding `Cc1c2oc3c(C)ccc(C(=O)N[C@@H]4C(=O)N[C@H](C(C)C)C(=O)N5CCC[C@H]5C(=O)N(C)CC(=O)N(C)[C@@H](C(C)C)C(=O)O[C@@H]4C)c3nc-2c(C(=O)N[C@@H]2C(=O)N[C@H](C(C)C)C(=O)N3CCC[C@H]3C(=O)N(C)CC(=O)N(C)[C@@H](C(C)C)C(=O)O[C@@H]2C)c(N)c1=O` [DACTINOMYCIN] (I: T[dV]P[Sar][NMeV] / II: T[dV]P[Sar][NMeV]; ester I:1-I:C, II:1-II:C; linker I:N-II:N via Actinocin(1to9)), the IC50 entry (against Acetylcholinesterase (hek293); in test [1]; in test [2]; against Adenosine receptor A1; in [3]; in test [4]) was “Not Active” each time. Also, the half-maximal inhibitory concentration (IC50) entry (on Endothelin-1 receptor; in test [5]; in test [6]) was “Not Active” in each case. The Ki result in test [2], in test [4] and in [5] was “Not Active” throughout.
Regarding `Nc1nc(N)nc(-c2cc(Cl)ccc2Cl)n1.O=C(O)/C=C\C(=O)O` [IRSOGLADINE MALEATE], the half-inhibitory concentration (IC50) entry (against Acetylcholinesterase (hek293); in test [1]; in test [2]; against Adenosine receptor A1; in test [3]; in test [4]) was “Not Active” in each case. The half-inhibitory concentration (IC50) entry (against Endothelin-1 receptor; in test [5]; in test [6]) was “Not Active” each time. The Ki entry in test [2], in test [4] and in test [5] was “Not Active” in each case.
On to `Nc1ncn([C@@H]2O[C@H](CO)[C@@H](O)[C@H]2O)c(=O)n1` [AZACITIDINE], for which the IC50 entry (against Acetylcholinesterase (hek293); in test [1]; in test [2]; at Adenosine receptor A1; in [3]; in [4]) was “Not Active” each time. Moreover, the IC50 entry (at Endothelin-1 receptor; in test [5]; in test [6]) was “Not Active” in each case. Besides, the Ki result in test [2], in test [4] and in test [5] was “Not Active” in each case.
Consider `CC(NC(C)(C)C)C(=O)c1cccc(Cl)c1` (configuration not stated) [BUPROPION], for which the IC50 result (against Acetylcholinesterase (hek293); in [1]; in [2]; at Adenosine receptor A1; in test [3]; in test [4]) was “Not Active” in each case. Further, the half-inhibitory concentration (IC50) result (on Endothelin-1 receptor; in [5]; in [6]) was “Not Active” each time. The Ki entry in [2], in test [4] and in test [5] was “Not Active” in each case.
For the compound `Cc1cc(C2CCCCC2)n(O)c(=O)c1` [CICLOPIROX], the IC50 result (against Acetylcholinesterase (hek293); in test [1]; in test [2]; against Adenosine receptor A1; in test [3]; in [4]) was “Not Active” in each case. The IC50 entry (against Endothelin-1 receptor; in test [5]; in test [6]) was “Not Active” throughout. Besides, the Ki result in test [2], in test [4] and in [5] was “Not Active” in each case.
Consider `CC1(C)S[C@@H]2[C@H](NC(=O)Cc3ccccc3)C(=O)N2[C@H]1C(=O)O` [PENICILLIN G], for which the IC50 result (against Acetylcholinesterase (hek293); in test [1]; in test [2]; against Adenosine receptor A1; in [3]; in test [4]) was “Not Active” in each case. In addition, the 50% inhibitory concentration (IC50) entry (against Endothelin-1 receptor; in test [5]; in test [6]) was “Not Active” throughout. In addition, the Ki entry in test [2], in test [4] and in [5] was “Not Active” each time.
